According to US6555563B1, “Heteroaryl substituted amidinyl and imidazolyl compounds and methods employing same for the treatment of inflammation” (Medinox, Inc., priority 2001, dated 2003):

Experiments:
COX-1 = biological target: T1, COX-1 (Ovis aries, UniProt P05979); test: Assay for COX-1 activity (Ovine), PGE2 formation by ELISA; type: biochemical; details: for COX-1 10 nM (% inhibition) / inhibition at 0.01 µM: 10 nM compound; for COX-1 50 nM (% inhibition) / inhibition at 0.05 µM: 50 nM compound; for IC50: first number of cell COX1/COX2; for inhibition at 0.01 µM: read-out: COX-1 10 nM (% inhibition); for inhibition at 0.05 µM: read-out: COX-1 50 nM (% inhibition)
T1 construct: host or cells: insect cells (membranes, CHAPS-solubilized)
T1 sequence (P05979 25-600): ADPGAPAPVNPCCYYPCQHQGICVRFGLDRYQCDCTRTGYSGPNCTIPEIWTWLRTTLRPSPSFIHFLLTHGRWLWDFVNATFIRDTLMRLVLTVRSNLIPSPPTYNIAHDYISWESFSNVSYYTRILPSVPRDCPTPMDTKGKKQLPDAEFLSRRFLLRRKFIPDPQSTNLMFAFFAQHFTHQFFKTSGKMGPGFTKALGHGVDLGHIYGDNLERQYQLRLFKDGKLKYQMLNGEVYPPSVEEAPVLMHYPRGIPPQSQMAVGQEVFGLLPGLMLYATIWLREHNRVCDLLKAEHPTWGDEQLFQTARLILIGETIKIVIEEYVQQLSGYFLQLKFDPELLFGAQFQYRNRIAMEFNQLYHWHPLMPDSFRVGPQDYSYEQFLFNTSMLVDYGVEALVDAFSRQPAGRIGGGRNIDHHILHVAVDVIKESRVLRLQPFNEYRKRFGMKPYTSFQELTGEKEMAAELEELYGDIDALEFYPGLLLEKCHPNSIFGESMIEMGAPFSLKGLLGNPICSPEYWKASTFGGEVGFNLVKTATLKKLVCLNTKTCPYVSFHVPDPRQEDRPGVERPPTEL
Protocol: (§1) COX activity was assayed as PGE2 formed/μg protein/time using ELISA to detect prostaglandin release. CHAPS-solubilized insect cell membranes containing the appropriate COX enzyme were incubated in a potassium phosphate buffer (50 mM, pH 8.0) containing Tris-HCl, EDTA, phenol, and heme with the addition of arachidonic acid (10 μM). Compounds were pre-incubated with the enzyme for 5-10 minutes prior to the addition of arachidonic acid. Any reaction between the arachidonic acid and the enzyme was stopped after two minutes at 37° C. The PGE2 formed was measured by standard ELISA technology (Cayman Chemical).

COX-2 = biological target: T2, COX-2 (Ovis aries, UniProt P79208); test: Assay for COX-2 activity (Ovine), PGE2 formation by ELISA; type: biochemical; details: for COX-2 10 nM (% inhibition) / inhibition at 0.01 µM: 10 nM compound; for COX-2 50 nM (% inhibition) / inhibition at 0.05 µM: 50 nM compound; for Selectivity: IC50 COX1 / IC50 COX2; for IC50: second number of cell COX1/COX2; for inhibition at 0.01 µM: read-out: COX-2 10 nM (% inhibition); for inhibition at 0.05 µM: read-out: COX-2 50 nM (% inhibition)
T2 construct: host or cells: insect cells (membranes, CHAPS-solubilized)
T2 sequence (P79208 17-603): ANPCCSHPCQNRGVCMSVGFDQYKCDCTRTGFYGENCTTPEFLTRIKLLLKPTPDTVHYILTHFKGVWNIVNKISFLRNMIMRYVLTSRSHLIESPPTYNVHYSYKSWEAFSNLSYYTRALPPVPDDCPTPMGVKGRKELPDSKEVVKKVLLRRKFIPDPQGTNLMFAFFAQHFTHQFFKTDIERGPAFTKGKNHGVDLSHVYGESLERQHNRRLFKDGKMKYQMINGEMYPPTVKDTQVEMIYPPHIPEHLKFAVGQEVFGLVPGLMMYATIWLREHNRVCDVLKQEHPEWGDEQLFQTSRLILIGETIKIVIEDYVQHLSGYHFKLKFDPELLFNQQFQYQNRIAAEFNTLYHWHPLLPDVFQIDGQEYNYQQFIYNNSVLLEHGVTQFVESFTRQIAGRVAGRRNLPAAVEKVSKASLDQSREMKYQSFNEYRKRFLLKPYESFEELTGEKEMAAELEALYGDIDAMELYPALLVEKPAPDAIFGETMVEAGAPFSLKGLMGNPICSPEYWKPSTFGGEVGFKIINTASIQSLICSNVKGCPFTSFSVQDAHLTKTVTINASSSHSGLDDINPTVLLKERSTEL
Protocol: as §1

[1] = Pharmacokinetics after oral administration in rats; type: in vivo, Male Sprague Dawley rats; details: rat
Protocol: The animals are housed, fed and cared for according to the Guidelines of the […] Council on Animal Care. Male Sprague Dawley rats (250-300 g) are fasted overnight prior to each PO blood level study. The rats are placed in the restrainer one at a time and the box firmly secured. Compounds are prepared as required, in a standard dosing volume of 500 μL/250 g, and administered orally by passing a 16 gauge, 3″ gavaging needle into the stomach. Rats are catheterized at the carotid at least one day before drug administration and flushed with 30% PVP (400 U/mL of heparin) to prevent clotting in the tip. 250 μL blood samples are collected by unhooking the flush syringe and letting the blood flow freely in centrifuge tube at predetermined time points. The tubes should be centrifuged at 13,000 rpm for 10 min at 4° C. The plasma samples are collected in microcentrifuge tubes and stored immediately at −20° C. until analysis or analyzed immediately. Typical time points for determination of rat blood levels after PO dosing are: 30 min, 1 h, 3 h, 5 h, 7 h, 23 h, 25 h, 28 h, 31 h. A 100 μL aliquot of plasma sample is mixed with 150 μL of acetonitrile. After vortex and centrifuge, 200 μL of the supernatant is dried up under Speed Vac. The residue is reconstituted with 100 μL of methanol. After vortex and centrifuge again, 25 μL of supernatant is analyzed by C-18 HPLC column using UV detector. Quantitation is done relative to a clean blood sample spiked with a known quantity of drug.

[2] = tested on: adjuvant-induced arthritis in rats; test: Adjuvant-induced arthritis rat model, inhibition of paw swelling; type: in vivo, Male Lewis rats; details: oral, daily, days 8-15; paw volume day 15

| Compound | COX-1 10 nM (% inhibition) (COX-1) [%] | COX-1 50 nM (% inhibition) (COX-1) [%] | IC50 (COX-1) [nM] | COX-2 10 nM (% inhibition) (COX-2) [%] | COX-2 50 nM (% inhibition) (COX-2) [%] | Selectivity (COX-2) | IC50 (COX-2) [nM] | half-life compared with Celecoxib (in words) [1] | inhibition at 0.01 µM (COX-1) [%] | inhibition at 0.05 µM (COX-1) [%] | selectivity for the inhibition of COX-2 over COX-1 (in words) (COX-2) | inhibition at 0.01 µM (COX-2) [%] | inhibition at 0.05 µM (COX-2) [%] | pharmacology (pharmacokinetic) profile (in words) [1] | potency in controlling inflammation (in words) [2] |
| --- | --- | --- | --- | --- | --- | --- | --- | --- | --- | --- | --- | --- | --- | --- | --- |
| N=C(Nc1ccc(S(N)(=O)=O)cc1)c1nnc(-c2ccccc2)s1 [Example 32, N-[4-(Aminosulfonyl)phenyl]-3-[2-(phenyl)-1,3,4-thiadiazol-5-yl]carboximidamide] | 15 | 45 | 79 | 85 | 94 | 17 | 4.8 | longer half-life |  |  |  |  |  |  |  |
| Cc1onc(-c2ccccc2)c1-c1ccc(S(N)(=O)=O)cc1 [Valdecoxib, reference compound] |  |  |  |  |  |  |  |  | 2 |  |  |  |  |  |  |
| N-[4-(Aminosulfonyl)phenyl]-3-[2-(4-fluorophenyl)-1,3,4-thiadiazol-5-yl]carboximidamide [Example 33] | 23 | 52 | 36 | 84 | 100 | 11 | 3.3 | longer half-life |  |  |  |  |  |  |  |
| NS(=O)(=O)c1ccc(-n2cc(C(F)(F)F)nc2-c2nnc(-c3ccccc3)s2)cc1 [Example 48, 1-[4-(Aminosulfonyl)phenyl]-2-[2-(phenyl)-1,3,4-thiadiazol-5-yl]-4-(trifluoromethyl)-1H-imidazole] |  |  | 36 |  |  | 90 | 0.4 | longer half-life | 10 | 25 | good selectivity | 84 | 100 | excellent pharmacology profile | good potency in controlling inflamation |
| CS(=O)(=O)c1ccc(-n2cc(C(F)(F)F)nc2-c2nnc(-c3ccccc3)s2)cc1 [Example 44, 1-[4-(Methylsulfonyl)phenyl]-2-(2-phenyl-1,3,4-thiadiazol-5-yl)-4-(trifluoromethyl)-1H-imidazole] |  |  | 27 |  |  | 12 | 2.3 |  | 30 | 45 |  | 95 | 100 |  |  |
| CS(=O)(=O)c1ccc(-n2cc(C(F)(F)F)nc2-c2nnc(Nc3ccccc3)s2)cc1 [Example 52, 1-[4-(Methylsulfonyl)phenyl]-2-[2-(N-anilino)-1,3,4-thiadiazol-5-yl]-4-(trifluoromethyl)-1H-imidazole] | 31 |  | 62 | 98 |  | 12 | 5.1 |  |  |  |  |  |  |  |  |
